In data set [1] the test system is human pancreatic cancer cell line (ASPC-1). Description: Cytotoxic activity by CCK-8 method. The class given is cell-based. As for the experimental part: The cytotoxic effects of all compounds against human pancreatic cancer cell line (ASPC-1) were evaluated by CCK-8 method.
(Formazan colour is commonly taken as a measure of viable cells.)

Data set [2] relates to H460 cells. Description: Half toxic concentration in the antiviral assay host cells. Type of data set: cell-based. As for the experimental part: (§1) Briefly, the H460 cells were inoculated into 96 well culture plates and cultured at 35°C under 5% CO2 condition, and infected by HCoV-OC43 virus with 100 times 50% tissue culture infective dose (TCID50) 24 h later; then the positive control drugs and test compounds were added. The half inhibitory concentration (IC50) and the half toxic concentration (TC50) were determined by the Reed and Muench method. The selectivity index (SI) was calculated as the ratio of TC50/IC50.

The test system of data set [3] is coronavirus (HCoV-OC43). Description: microbe, parasite or virus in culture. The class given is cell-based. Conditions: for SI (TC50/IC50): HCoV-OC43 in H460 cells. As to the method: as §1
The test system of data set [4] is pancreatic cancer cell line PANC-1. Also on record: method as in Wang et al., 2019. Conditions: PANC-1 cells; ref Wang et al., 2019; cited from earlier work.
Setting [5] is: Homo sapiens, ASPC1, AsPC-1 cells.
Where [6] appears, read: Betacoronavirus 1, OC43, NCI-H460, HCoV-OC43 (100 TCID50) in H460 cells.

In brackets after ≈: the same amount, converted by molar mass. A value given as a limit tells only on which side of the number the result lay.

`CC(C)C(O)C(=O)N(C)C(Cc1ccccc1)C(=O)OC(C(=O)N(C)C(Cc1ccccc1)C(=O)OC(C(=O)N(C)C(Cc1ccccc1)C(=O)O)C(C)C)C(C)C` (centres unmarked) [Compound 1, Secobeauvericin A]: in data set [1] (setting [5]), the IC50 (as a rule, the point on the concentration scale where inhibition reaches its midpoint) was greater than 90 µM.
Turning to `CC(C)C1OC(=O)C(Cc2ccccc2)NC(=O)C(C(C)C)OC(=O)C(Cc2ccccc2)N(C)C(=O)C(C(C)C)OC(=O)C(Cc2ccccc2)NC1=O` (centres unmarked) [Compound 2, Beauvericin M], the melting point (usually the temperature of the solid-liquid transition) lay within 85 to 86 °C. Besides, the IC50 in data set [1] (setting [5]) is greater than 90 µM.
The matching figures for `CC1OC(=O)C(Cc2ccccc2)N(C)C(=O)C(C(C)C)OC(=O)C(Cc2ccccc2)N(C)C(=O)C(C(C)C)OC(=O)C(Cc2ccccc2)N(C)C1=O` (centres unmarked) [Compound 3, Beauvericin N]: 82 to 83 °C and greater than 90 µM.
Consider `CC(C)C1OC(=O)C(Cc2ccccc2)N(C)C(=O)C(C(C)C)OC(=O)C(Cc2ccccc2)N(C)C(=O)C(C(C)C)OC(=O)C(Cc2ccccc2)NC1=O` (centres unmarked) [Compound 5, beauvericin D], for which, in data set [1] (setting [5]), the IC50 is greater than 90 µM.
In data set [2], `CC[C@H](C)C[C@@H](C)/C=C(\C)[C@@H]1O[C@H](c2c(O)c(-c3ccc(O)cc3)cn(C)c2=O)CC[C@H]1C` [Compound 6, (–)-sambutoxin] came in with a TC50 of less than 0.02 µg/mL. The same molecule came in with an IC50 in data set [1] (setting [5]) greater than 90 µM.
`CC[C@H](C)C[C@@H](C)/C=C(\C)[C@@H]1O[C@H](c2c(O)c([C@@]3(O)CCC(=O)C[C@@H]3O)cn(C)c2=O)CC[C@H]1C` [Compound 7, (–)-oxysporidinone] came in with a TC50 in data set [2] of 23.09 µg/mL (≈ 47.2 µM). Also, the 50% inhibitory concentration (IC50) in data set [3] (setting [6]) was determined as 13.3 µg/mL (≈ 27.2 µM); in data set [1] (setting [5]), 17.6 µM. In data set [3], the “SI (TC50/IC50)” value is reported as 1.7.
With `CC[C@H](C)C[C@@H](C)/C=C(\C)[C@@H]1O[C@H](c2c3c(cn(C)c2=O)[C@@]2(O)CCC(=O)C[C@@H]2O3)CC[C@H]1C` [Compound 8, fusapyridon A], the TC50 in data set [2] turned out to be 11.55 µg/mL (≈ 24.5 µM). In addition, the IC50 is 6.67 µg/mL (≈ 14.1 µM) in data set [3] (setting [6]); 6.65 µg/mL (≈ 14.1 µM) in data set [3] (Betacoronavirus 1, OC43, NCI-H460, HCoV-OC43, unit as printed in running text); 29.7 µM in data set [1] (setting [5]). The “SI (TC50/IC50)” value in data set [3] turned out to be 1.7.
`CC[C@H](C)C[C@@H](C)/C=C(\C)[C@@H]1O[C@H](c2c3c(cn(C)c2=O)[C@@]2(OC)CCC(=O)C[C@@H]2O3)CC[C@H]1C` [Compound 9, (–)-fusoxypyridone] displayed a TC50 in data set [2] of 11.55 µg/mL (≈ 23.8 µM). Besides, the IC50 in data set [3] (setting [6]) is greater than 6.67 µg/mL; in data set [1] (setting [5]) it was 18.8 µM.
Regarding `CC(C)=CCc1c(O)cc(O)c(C=O)c1C(=O)c1c(O)cc(C)c(Cl)c1O` [E], in data set [4], the IC50 is 7.2 µM.
Take `Nc1ccn([C@@H]2O[C@H](CO)[C@@H](O)C2(F)F)c(=O)n1` [Gemcitabine, gemcitabine, reference compound]: the IC50 in data set [1] (setting [5]) was 1.53 µM.
The molecule `NC(=O)c1ncn([C@@H]2O[C@H](CO)[C@@H](O)[C@H]2O)n1` [Ribavirin, ribavirin, reference compound] displayed a TC50 in data set [2] of 100 µg/mL (≈ 409 µM). The molecule further showed an IC50 in data set [3] (setting [6]) of 19.2 µg/mL (≈ 78.8 µM). Further, the “SI (TC50/IC50)” value in data set [3] is given as 5.2.
Take beauvericin [Compound 4]: the IC50 in data set [1] (AsPC-1 cells) amounted to 3.45 µM.

The values are drawn from publication PMC9877305, “Cytotoxic hexadepsipeptides and anti-coronaviral 4-hydroxy-2-pyridones from an endophytic Fusarium sp” (Frontiers in Chemistry, 2023).
